Laboratory results: patent publication US11351178B2, “Selective HDAC6 inhibitors” (ITALFARMACO S.P.A., priority 2017, dated 2022)
pIC50: −log10 of the molar value.

Experiments:
[1] = Stability to Phase I metabolism in rat S9 liver fraction; type: in vitro ADME; conditions: after 90 min, 37° C.
Experimental: Test compounds were incubated in rat and human liver S9 fraction at 37° C. up to 90 minutes in order to evaluate their stability to Phase I metabolism by hepatic enzymes. […] The reaction was stopped placing samples on ice bath and adding acidified acetonitrile. After centrifugation (10 minutes at 14000 rpm) an aliquot of the supernatant was diluted water, filtered with 0.45 μm regenerated cellulose syringe filters and injected in HPLC-UV or in LC-MS/MS. The percentages of the amount remaining at the various incubation times with respect to the initial amount were calculated. The intrinsic clearance was also calculated.

recombinant human HDAC6 = target: T1, recombinant human HDAC6 (Homo sapiens, UniProt Q9UBN7); test: Enzymatic screening on recombinant human HDAC6; type: biochemical; conditions: Table 2; read-out: HDAC6 IC50
T1 sequence (Q9UBN7 1-1215): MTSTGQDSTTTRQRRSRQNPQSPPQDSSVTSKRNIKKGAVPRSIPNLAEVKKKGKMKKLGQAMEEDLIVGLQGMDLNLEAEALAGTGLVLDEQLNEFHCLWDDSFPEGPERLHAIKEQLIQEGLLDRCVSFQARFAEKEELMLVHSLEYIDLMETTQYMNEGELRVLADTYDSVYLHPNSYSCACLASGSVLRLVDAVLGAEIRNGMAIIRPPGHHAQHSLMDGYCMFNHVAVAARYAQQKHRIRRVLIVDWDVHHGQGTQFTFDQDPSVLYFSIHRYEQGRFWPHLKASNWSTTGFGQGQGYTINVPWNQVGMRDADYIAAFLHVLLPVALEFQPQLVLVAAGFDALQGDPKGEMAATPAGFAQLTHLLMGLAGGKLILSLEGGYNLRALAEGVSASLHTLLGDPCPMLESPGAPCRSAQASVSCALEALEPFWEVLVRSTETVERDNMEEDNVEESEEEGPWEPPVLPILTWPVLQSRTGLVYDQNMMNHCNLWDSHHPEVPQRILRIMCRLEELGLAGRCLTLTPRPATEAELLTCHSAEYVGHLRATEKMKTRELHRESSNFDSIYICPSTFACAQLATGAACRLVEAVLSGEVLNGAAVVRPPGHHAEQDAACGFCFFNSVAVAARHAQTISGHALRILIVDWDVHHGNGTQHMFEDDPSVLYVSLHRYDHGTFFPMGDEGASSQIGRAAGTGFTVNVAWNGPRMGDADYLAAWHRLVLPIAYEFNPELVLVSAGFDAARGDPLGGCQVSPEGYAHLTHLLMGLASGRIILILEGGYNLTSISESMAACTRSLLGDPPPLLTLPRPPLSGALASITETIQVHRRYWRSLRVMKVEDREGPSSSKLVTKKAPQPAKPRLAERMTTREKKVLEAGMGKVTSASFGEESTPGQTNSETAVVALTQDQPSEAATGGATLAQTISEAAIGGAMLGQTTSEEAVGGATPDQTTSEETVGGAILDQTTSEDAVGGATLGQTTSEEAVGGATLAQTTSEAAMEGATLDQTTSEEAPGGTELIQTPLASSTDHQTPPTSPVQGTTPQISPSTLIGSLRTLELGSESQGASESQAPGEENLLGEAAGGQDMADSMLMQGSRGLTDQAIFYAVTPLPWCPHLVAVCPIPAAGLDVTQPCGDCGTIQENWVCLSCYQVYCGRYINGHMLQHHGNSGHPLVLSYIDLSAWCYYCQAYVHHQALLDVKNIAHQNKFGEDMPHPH
Experimental: Enzymatic activity on recombinant human HDAC6 and HDAC3 was evaluated (Table 2) for each synthesized compound.
After a period of incubation at 30° C. (incubation times vary for different isoforms and are shown in table 1) 25 μL of solution containing the substrate were added. As substrate, FLUOR DE LYS® deacetylase substrate (Enzo Life Sciences, cat #BML-K1104, FdL), FLUOR DE LYS®-Green substrate (Enzo Life Sciences, cat #BML-K1572 FdL_G) and trifluoroacetyl-L-lysine (Tfal)-2× concentrated solution in 25 mM Tris-HCl, pH 8, 130 mM NaCl 0.05% Tween-20 10% glycerol) were used. Following a reaction period at 30° C.

Stability in rat plasma = type: in vitro ADME; conditions: after 4 hours, 37° C.
Experimental: In order to evaluate the stability to circulating enzymes, test compounds were incubated in human and rat plasma at 37° C. in a thermostated oscillating bath. Each test compound was incubated at μM (50 μM when the samples were analysed by UV/HPLC, 1 or 2 μM when the samples were analysed by LC-MS/MS) concentration for 0, 15, 30 min and 1, 2 and 4 hours. The reaction was stopped placing tubes on ice bath and adding acidified acetonitrile. After centrifugation for 10 minutes at 14000 rpm, an aliquot of the supernatant was diluted with water, filtered with 0.45 μm syringe filters and injected in HPLC-UV or in LC-MS/MS. The percentages of amount remaining at the various times of incubation with respect to initial amount were calculated. The half-life in plasma was also calculated.

Which “residual percentage in rat S9 fraction” value [1] does the source give for `COc1ccc(-c2nnc(Cc3ccc(C(=O)NO)cc3)o2)cc1OC` [comp. 57, 4-[[5-(3,4-dimethoxyphenyl)-1,3,4-oxadiazol-2-yl]methyl]benzenecarbohydroxamic acid] here?
Its value is 71%.

What about the pIC50 (recombinant human HDAC6) of the same molecule?
Its pIC50 is 8.10.

And the “residual percentage in rat plasma” value (Stability in rat plasma)?
Its value is 94%.

Which “residual percentage in rat S9 fraction” value [1] does the source give for `O=C(NO)c1ccc(Cn2nnc(-c3cc4ccccc4s3)n2)cc1` [comp. 55, 4-[[5-(benzothiophen-2-yl)tetrazol-2-yl]methyl]benzenecarbohydroxamic acid] here?
The value was 46%.

And the pIC50 (recombinant human HDAC6)?
The pIC50 was 8.22.

Which “residual percentage in rat S9 fraction” value [1] does the source give for `O=C(NO)c1ccc(Cn2nnc(-c3csc4ccccc34)n2)cc1` [comp. 42, 4-[[5-(benzothiophen-3-yl)tetrazol-2-yl]methyl]benzenecarbohydroxamic acid] here?
The value was 16%.

And the pIC50 (recombinant human HDAC6)?
The pIC50 was 8.30.

With `O=C(NO)c1cc(F)c(Sc2nnc(-c3ccc(F)cc3)n2CCN2CCOCC2)c(F)c1` [comp. 138, 3,5-difluoro-4-[[5-(4-fluorophenyl)-4-(2-morpholinoethyl)-1,2,4-triazol-3-yl]sulfanyl]benzenecarbohydroxamic acid] as the molecule, how does the “residual percentage in rat S9 fraction” value [1] read?
The value was 79%.

What about the pIC50 (recombinant human HDAC6) of the same molecule?
Its pIC50 is 7.92.

With `O=C(NO)c1cc(F)c(Cc2noc(-c3ccc(CN4CCCC4)o3)n2)c(F)c1` [compound 202, 3,5-difluoro-4-[[5-[5-(pyrrolidin-1-ylmethyl)-2-furyl]-1,2,4-oxadiazol-3-yl]methyl]benzenecarbohydroxamic acid] as the molecule, how does the pIC50 (recombinant human HDAC6) read?
The pIC50 was 8.05.

Which “residual percentage in rat S9 fraction” value [1] does the source give for `O=C(NO)c1ccc(Cn2nnc(-c3ccc(Cl)cc3Cl)n2)cc1` [comp. 38, 4-[[5-(2,4-dichlorophenyl)tetrazol-2-yl]methyl]benzenecarbohydroxamic acid] here?
Its value is 1%.

What about the pIC50 (recombinant human HDAC6) of the same molecule?
The pIC50 was 8.00.

With `O=C(NO)c1cc(F)c(Cn2nnc(-c3ccc(S(F)(F)(F)(F)F)cc3)n2)c(F)c1` [comp. 112, 3,5-difluoro-4-[[5-[4-(pentafluoro-lambda6-sulfanyl)phenyl]tetrazol-2-yl]methyl]benzenecarbohydroxamic acid] as the molecule, how does the pIC50 (recombinant human HDAC6) read?
Its pIC50 is 6.91.

With `O=C(NO)c1ccc(Cn2nnc(-c3ccc4ccccc4n3)n2)cc1` [comp. 90, 4-[[5-(2-quinolyl)tetrazol-2-yl]methyl]benzenecarbohydroxamic acid] as the molecule, how does the pIC50 (recombinant human HDAC6) read?
Its pIC50 is 7.70.

With `O=C(NO)c1cc(F)c(Sc2nnc(-c3ccco3)n2Cc2ccccc2)c(F)c1` [comp. 142, 4-[[4-benzyl-5-(2-furyl)-1,2,4-triazol-3-yl]sulfanyl]-3,5-difluoro-benzenecarbohydroxamic acid] as the molecule, how does the pIC50 (recombinant human HDAC6) read?
The pIC50 was 7.70.

With `O=C(NO)c1ccc(Cn2nnnc2-c2cccc(S(F)(F)(F)(F)F)c2)cc1` [comp. 107, 4-[[5-[3-(pentafluoro-lambda6-sulfanyl)phenyl]tetrazol-1-yl]methyl]benzenecarbohydroxamic acid] as the molecule, how does the pIC50 (recombinant human HDAC6) read?
The pIC50 was 6.79.

With `O=C(NO)c1ccc(Cn2nnc(-c3ccc(C(F)(F)F)cn3)n2)cc1` [comp. 126, 4-[[5-[5-(trifluoromethyl)-2-pyridyl]tetrazol-2-yl]methyl]benzenecarbohydroxamic acid] as the molecule, how does the pIC50 (recombinant human HDAC6) read?
Its pIC50 is 7.07.

With `N[C@@H](Cc1cscn1)c1nc(Cc2ccc(C(=O)NO)cc2)no1` [comp. 48, (S)-4-((5-(1-amino-2-(thiazol-4-yl)ethyl)-1,2,4-oxadiazol-3-yl)methyl)-N-hydroxybenzamide 2,2,2-trifluoroacetate] as the molecule, how does the pIC50 (recombinant human HDAC6) read?
The pIC50 was 6.59.

With `COc1ccc(-c2nnn(Cc3ccc(C(=O)NO)cc3)n2)cc1` [comp. 35, 4-[[5-(4-methoxyphenyl)tetrazol-2-yl]methyl]benzenecarbohydroxamic acid] as the molecule, how does the pIC50 (recombinant human HDAC6) read?
The pIC50 was 8.30.

With `O=C(NO)c1ccc(Cn2nnc(-c3ccccc3F)n2)cc1` [comp. 46, 4-[[5-(2-fluorophenyl)tetrazol-2-yl]methyl]benzenecarbohydroxamic acid] as the molecule, how does the pIC50 (recombinant human HDAC6) read?
The pIC50 was 8.30.

With `O=C(NO)c1ccc(Cn2nnnc2-c2ncccn2)cc1` [comp. 124, 4-[(5-pyrimidin-2-yltetrazol-1-yl)methyl]benzenecarbohydroxamic acid] as the molecule, how does the pIC50 (recombinant human HDAC6) read?
Its pIC50 is 7.14.

With `O=C(NO)c1ccc(Sc2nc(C3CC3)n(-c3ccccc3)n2)cc1` [comp. 72, 4-[(5-cyclopropyl-1-phenyl-1,2,4-triazol-3-yl)sulfanyl]benzenecarbohydroxamic acid] as the molecule, how does the pIC50 (recombinant human HDAC6) read?
The pIC50 was 6.79.

With `O=C(NO)c1ccc(Cc2nnc(-c3cccc(S(=O)(=O)N4CCOCC4)c3)o2)cc1` [comp. 64, 4-[[5-(3-morpholinosulfonylphenyl)-1,3,4-oxadiazol-2-yl]methyl]benzenecarbohydroxamic acid] as the molecule, how does the pIC50 (recombinant human HDAC6) read?
Its pIC50 is 7.89.

With `O=C(NO)c1ccc(Cn2nnc(Cc3ccccn3)n2)cc1` [comp. 132, 4-[[5-(2-pyridylmethyl)tetrazol-2-yl]methyl]benzenecarbohydroxamic acid;2,2,2-trifluoroacetic acid] as the molecule, how does the pIC50 (recombinant human HDAC6) read?
The pIC50 was 7.60.

With `O=C(NO)c1ccc(Nc2nnc(-c3cccc(S(=O)(=O)N4CCCC4)c3)o2)cc1` [comp. 63, 4-[[5-(3-pyrrolidin-1-ylsulfonylphenyl)-1,3,4-oxadiazol-2-yl]amino]benzenecarbohydroxamic acid] as the molecule, how does the pIC50 (recombinant human HDAC6) read?
The pIC50 was 6.17.

With `O=C(NO)c1cc(F)c(Sc2nnc(-c3cccs3)n2Cc2ccco2)c(F)c1` [comp. 144, 3,5-difluoro-4-[[4-(2-furylmethyl)-5-(2-thienyl)-1,2,4-triazol-3-yl]sulfanyl]benzenecarbohydroxamic acid] as the molecule, how does the pIC50 (recombinant human HDAC6) read?
The pIC50 was 7.92.

For `CSc1sc(-c2nnn(Cc3ccc(C(=O)NO)cc3)n2)c2c1C(=O)CC(C)(C)C2` [comp. 54, 4-[[5-(6,6-dimethyl-3-methylsulfanyl-4-oxo-5,7-dihydro-2-benzothiophen-1-yl)tetrazol-2-yl]methyl]benzenecarbohydroxamic acid], which “residual percentage in rat S9 fraction” value [1] is on record?
Its value is 0%.

And the pIC50 (recombinant human HDAC6)?
The pIC50 was 7.74.

With `COc1ccc(Cc2nnc(-c3ccc(C(=O)NO)cc3)o2)cc1OC` [comp. 26, 4-[5-[(3,4-dimethoxyphenyl)methyl]-1,3,4-oxadiazol-2-yl]benzenecarbohydroxamic acid] as the molecule, how does the pIC50 (recombinant human HDAC6) read?
Its pIC50 is 6.59.

With `Cn1c(Sc2c(F)cc(C(=O)NO)cc2F)nnc1-c1cc(-c2cccs2)n(-c2ccccc2)n1` [comp. 136, 3,5-difluoro-4-[[4-methyl-5-[1-phenyl-5-(2-thienyl)pyrazol-3-yl]-1,2,4-triazol-3-yl]sulfanyl]benzenecarbohydroxamic acid] as the molecule, how does the pIC50 (recombinant human HDAC6) read?
Its pIC50 is 7.40.

With `COc1ccc(CCC(=O)N[C@@H](Cc2cscn2)c2nc(Cc3ccc(C(=O)NO)cc3)no2)cc1OC` [comp. 21, 3-(3,4-dimethoxyphenyl)-N-[(1S)-1-[3-[[4-(hydroxycarbamoyl)phenyl]methyl]-1,2,4-oxadiazol-5-yl]-2-thiazol-4-yl-ethyl]propanamide] as the molecule, how does the pIC50 (recombinant human HDAC6) read?
The pIC50 was 6.94.

With `O=C(NO)c1ccc(Cc2nc(-c3ccc(Cl)cc3)nn2Cc2ccccc2)cc1` [comp. 51, 4-[[2-benzyl-5-(4-chlorophenyl)-1,2,4-triazol-3-yl]methyl]benzenecarbohydroxamic acid] as the molecule, how does the pIC50 (recombinant human HDAC6) read?
The pIC50 was 6.43.

With `Cc1ccc(-c2nnn(Cc3ccc(C(=O)NO)cc3)n2)s1` [comp. 41, 4-[[5-(5-methyl-2-thienyl)tetrazol-2-yl]methyl]benzenecarbohydroxamic acid] as the molecule, how does the pIC50 (recombinant human HDAC6) read?
Its pIC50 is 8.40.
